One test concerns PROVE-IT patients. Nature of the test: PROVE-IT (PROVE IT-TIMI 22) genetic study: high-dose atorvastatin vs standard-dose pravastatin, death or major cardiovascular events by KIF6 719Arg carrier status. Type of test: in vivo, human. Here is the method: Patients were followed for 18 to 36 months, with an average follow-up of 24 months.
Of the 1,724 patients who met the criteria listed above, 1344 (78.0%) were male. […] This study was approved by institutional review boards of the Brigham and Women's Hospital and all participating centers.
KIF6 genotypes were determined using allele—specific real-time PCR as previously described. Cox proportional hazard models (Wald tests) were used to assess the effect of atorvastatin-treatment on incident CHD in the KIF6 719Arg carriers and noncarriers. Continuous variables tested were age, baseline LDL-C, and baseline HDL-C levels. Categorical variables tested were smoking (current versus non-current), hypertension, and baseline diabetes. All reported p values are two-sided.

The subject of test [1] is elderly men and women (ages 70-82). Nature of the test: PROSPER trial: pravastatin vs placebo, coronary events in elderly by KIF6 719Arg carrier status. The format is in vivo, human. As to conditions: for hazard ratio (coronary events, pravastatin vs placebo) / Hazard ratio: PROSPER; for hazard ratio (coronary events, pravastatin vs placebo): ages 70-82; for event (number of patients) / no event (number of patients): pravastatin arm of PROSPER; for Hazard ratio: pravastatin vs placebo, risk of CHD. Here is the method:
In this analysis, the KIF6 Trp719Arg polymorphism was analyzed in samples from the “Prospective Study of Pravastatin in the Elderly at Risk” (PROSPER) trial (PROSPER is described further in Shepherd et al., Lancet. 2002 Nov. 23; 360(9346):1623-30). PROSPER was both a secondary and primary trial of elderly men and women (ages 70-82). […] Since an interaction has been observed between KIF6 carrier status and prior vascular events, groups with and without prior vascular events were genotyped separately.
5752 patients were genotyped within the PROSPER trial, and Cox proportional hazards models were used to investigate (1) the risk for coronary events in 719Arg carriers compared with noncarriers in a placebo arm, and (2) the effect of statin therapy according to 719Arg carrier status in a pravastatin arm.
To assess the effect of pravastatin, risk estimates were used to compare the pravastatin arm with the placebo arm in subgroups defined by genotypes.

[2] abbreviates: carrier (minor homozygote + heterozygote).

On to `CC[C@H](C)C(=O)O[C@H]1C[C@H](O)C=C2C=C[C@H](C)[C@H](CC[C@@H](O)C[C@@H](O)CC(=O)O)[C@H]21` [Pravastatin, pravastatin], for which the “On-trial CHD” value is on record as 123 Number of patients with PROVE-IT patients (ArgArg + ArgTrp, totals 509 (atorvastatin), 502 (pravastatin)) and 80 Number of patients with PROVE-IT patients (TrpTrp, totals 359 (atorvastatin), 352 (pravastatin)). For the same compound, the “hazard ratio (coronary events, pravastatin vs placebo)” value in test [1] (719Arg carriers with prior vascular disease) turned out to be 0.67; in test [1] (noncarriers with prior vascular disease) it was 0.92. Further, the “event (number of patients)” value in test [1] (setting [2]) is listed as 103; in test [1] (rs20455 genotype AA), 80; in test [1] (rs20455 genotype AG), 85; in test [1] (rs20455 genotype GG), 18. For the same compound, the “no event (number of patients)” value was 657 in test [1] (setting [2]), 456 in test [1] (rs20455 genotype AA), 501 in test [1] (rs20455 genotype AG) and 156 in test [1] (rs20455 genotype GG). The Hazard ratio in test [1] (KIF6 719Arg carrier, Model 1 unadjusted) was 0.67; in test [1] (KIF6 719Arg carrier, Model 2 adjusted for age, sex and smoking status), 0.67; in test [1] (KIF6 719Arg carrier, Model 3 adjusted for age, sex, smoking status, history of hypertension, LDL, HDL and history of diabetes), 0.67; in test [1] (KIF6 rs20455 heterozygote, Model 1 unadjusted), 0.67; in test [1] (KIF6 rs20455 heterozygote, Model 2 adjusted for age, sex and smoking status), 0.67; in test [1] (KIF6 rs20455 heterozygote, Model 3 adjusted for age, sex, smoking status, history of hypertension, LDL, HDL and history of diabetes), 0.68. Further, the Hazard ratio is given as 0.93 in test [1] (KIF6 rs20455 major homozygote (noncarrier), Model 1 unadjusted); 0.92 in test [1] (KIF6 rs20455 major homozygote (noncarrier), Model 2 adjusted for age, sex and smoking status); 0.92 in test [1] (KIF6 rs20455 major homozygote (noncarrier), Model 3 adjusted for age, sex, smoking status, history of hypertension, LDL, HDL and history of diabetes); 0.65 in test [1] (KIF6 rs20455 minor homozygote, Model 1 unadjusted); 0.65 in test [1] (KIF6 rs20455 minor homozygote, Model 2 adjusted for age, sex and smoking status); 0.63 in test [1] (KIF6 rs20455 minor homozygote, Model 3 adjusted for age, sex, smoking status, history of hypertension, LDL, HDL and history of diabetes).

These data come from patent publication US8148070B2, “Genetic polymorphisms associated with coronary events and drug response, methods of detection and uses thereof” (Celera Corporation, priority 2007, dated 2012).
